Assay results as given in patent publication US20240398973A1, “ENGINEERED ANTIBODY COMPOUNDS AND CONJUGATES THEREOF” (Eli Lilly and Company, priority 2017, published 2024).
pEC50: −log10 of the molar value. Read-outs that look alike come from different tables or passages of the source. Values belong to the substance of their own block, whether it stands above or below them. Where no end group is shown, it is not given here. The star is where a group is joined. hydrolyzed maleimide‑PEG linker = hydrolyzed maleimide-polyethylene glycol (PEG) linker, bound to the Lys side chain through an epsilon amide bond; For = O=C*

Assays:
human primary PMNs = assay: PMN reactive oxygen species (ROS) production, luminol-amplified chemiluminescence; assay type: cell-based; settings: for PMN ROS production: relative to 3000 nM fMLF, AUC 5 minutes (Table 8b)
Protocol: Production of ROS by human primary PMNs is measured using luminol-amplified chemiluminescence. Following isolation, PMNs are suspended at 1×10^6 cells/ml in HBSS containing calcium and magnesium (Gibco #14025-092) supplemented with 0.25% human serum albumin (Gemini Bio producst #800-124) and 50 uM Luminol (SigmaAldrich #123072-2.5G). 100 μl of cell suspension (1×10^5 total cells) is then distributed into each well of a 96-well plate suitable for fluorescence measurement (Greiner #655098) and temperature equilibrated to 37° C. for 5 minutes. Following equilibration, 10× solution of antibody conjugate is applied to the wells, achieving a 1× final concentration.
Immediately after the addition of antibody conjugate, chemiluminescence signal is recorded in a luminometer maintained at 37° C. with 0.01 seconds dwell time per well, 20 seconds total time between sequential plate readings and 45 minutes total run time (PerkinElmer EnVision Multilabel Plate Reader).

[1] = test system: Mouse neutrophils purified from marrow; assay: Mouse PMN ROS production; assay type: cell-based; settings: relative to 10000 nM fMLF, AUC 5 minutes (Table 8c)
Protocol: Mouse neutrophils purified from marrow were exposed to formyl peptides or antibody conjugates and ROS production was measured using luminol amplified chemiluminescence essentially as described above.

[2] = test system: primary human polymorphonuclear neutrophil (PMN); assay: PMN chemotaxis (transwell, modified Boyden chamber); assay type: cell-based; settings: relative to 100 nM fMLF, raw migration values (Table 4b)
Protocol: Chemotaxis is measured by observing primary human polymorphonuclear neutrophil (PMN) migration across transwell membranes (Corning #3415) towards antibody conjugates in a modified Boyden chamber assay. Approximately 2-4×10^5 cells from neutrophil-enriched preparations are seeded in upper transwell chambers on membranes with 3.0 um pores. The lower transwell chambers contain solutions of buffer alone and fMLF (N-formyl-Met-Leu-Phe peptide as positive control) and experimental antibody bioconjugates. […] Cell numbers are determined using standard curves. All data are transformed to percent relative to the maximal fMLF response for each individual experiment.

[3] = target: formyl peptide receptor 1 (FPR1) on primary human polymorphonuclear neutrophils (human) (UniProt P21462); assay: cell-based or functional assay
[4] = target: formyl peptide receptor 1 (FPR1) on primary human polymorphonuclear neutrophils (human) (UniProt P21462); assay: cell-based or functional assay; remark: listed apart in the source

pEC50 (human primary PMNs; Best-Fit values in Graphpad PRISM (Table 8b)): 7.29
Substance: FRM-021: SEQ ID NO: 36; formyl-Met-Ile-Phe-Leu-Lys, lysine side chain epsilon amide to a hydrolyzed maleimide-PEG linker (For-MIFLK(hydrolyzed maleimide‑PEG linker))
PMN ROS production (human primary PMNs; 10 nM): 8.4 percentage | PMN ROS production (human primary PMNs; 30 nM): 34.4 percentage | PMN ROS production (human primary PMNs; 100 nM): 69.2 percentage | PMN ROS production (human primary PMNs; 300 nM): 84.4 percentage | PMN ROS production (human primary PMNs; 1000 nM): 91.2 percentage | PMN ROS production (human primary PMNs; 3000 nM): 102.9 percentage | PMN ROS production (human primary PMNs; 10000 nM): 91.7 percentage | Mouse PMN ROS Production ([1]; 10 nM): 14.5 percentage | Mouse PMN ROS Production ([1]; 30 nM): 17.3 percentage | Mouse PMN ROS Production ([1]; 100 nM): 112.6 percentage | Mouse PMN ROS Production ([1]; 300 nM): 150.3 percentage | Mouse PMN ROS Production ([1]; 1000 nM): 180.2 percentage | Mouse PMN ROS Production ([1]; 3000 nM): 194.4 percentage | Mouse PMN ROS Production ([1]; 10000 nM): 186.9 percentage | PMN Chemotaxis Towards Formyl Peptides ([2]; 1 nM): 151.7% | PMN Chemotaxis Towards Formyl Peptides ([2]; 3 nM): 142.2% | PMN Chemotaxis Towards Formyl Peptides ([2]; 10 nM): 137.4% | PMN Chemotaxis Towards Formyl Peptides ([2]; 30 nM): 52.9% | PMN Chemotaxis Towards Formyl Peptides ([2]; 100 nM): 37.0% | PMN Chemotaxis Towards Formyl Peptides ([2]; 300 nM): 35.6% | PMN Chemotaxis Towards Formyl Peptides ([2]; 1000 nM): 22.8%

EC50 of PMN ROS production [3]: 164 nM
Substance: TMab-G1-fMLFK-HC-124C-378C (antibody)

EC50 of PMN ROS production [4]: 154 nM | EC50 of PMN ROS production [3]: 334 nM
Substance: fMLF (N-formyl-Met-Leu-Phe peptide)
